Assay results taken from US8901118B2, “Compounds and methods for kinase modulation, and indications therefor” (Plexxikon Inc., priority 2010, dated 2014).

Experiments:
Flt-3 kinase = molecular target: T1, Flt-3 kinase (Homo sapiens, UniProt P36888); experiment: Flt-3 kinase biochemical activity assay (AlphaScreen); conditions: 100 μM ATP; read-out: Biochemical Inhibition IC50 Flt3
T1 sequence (P36888 27-993): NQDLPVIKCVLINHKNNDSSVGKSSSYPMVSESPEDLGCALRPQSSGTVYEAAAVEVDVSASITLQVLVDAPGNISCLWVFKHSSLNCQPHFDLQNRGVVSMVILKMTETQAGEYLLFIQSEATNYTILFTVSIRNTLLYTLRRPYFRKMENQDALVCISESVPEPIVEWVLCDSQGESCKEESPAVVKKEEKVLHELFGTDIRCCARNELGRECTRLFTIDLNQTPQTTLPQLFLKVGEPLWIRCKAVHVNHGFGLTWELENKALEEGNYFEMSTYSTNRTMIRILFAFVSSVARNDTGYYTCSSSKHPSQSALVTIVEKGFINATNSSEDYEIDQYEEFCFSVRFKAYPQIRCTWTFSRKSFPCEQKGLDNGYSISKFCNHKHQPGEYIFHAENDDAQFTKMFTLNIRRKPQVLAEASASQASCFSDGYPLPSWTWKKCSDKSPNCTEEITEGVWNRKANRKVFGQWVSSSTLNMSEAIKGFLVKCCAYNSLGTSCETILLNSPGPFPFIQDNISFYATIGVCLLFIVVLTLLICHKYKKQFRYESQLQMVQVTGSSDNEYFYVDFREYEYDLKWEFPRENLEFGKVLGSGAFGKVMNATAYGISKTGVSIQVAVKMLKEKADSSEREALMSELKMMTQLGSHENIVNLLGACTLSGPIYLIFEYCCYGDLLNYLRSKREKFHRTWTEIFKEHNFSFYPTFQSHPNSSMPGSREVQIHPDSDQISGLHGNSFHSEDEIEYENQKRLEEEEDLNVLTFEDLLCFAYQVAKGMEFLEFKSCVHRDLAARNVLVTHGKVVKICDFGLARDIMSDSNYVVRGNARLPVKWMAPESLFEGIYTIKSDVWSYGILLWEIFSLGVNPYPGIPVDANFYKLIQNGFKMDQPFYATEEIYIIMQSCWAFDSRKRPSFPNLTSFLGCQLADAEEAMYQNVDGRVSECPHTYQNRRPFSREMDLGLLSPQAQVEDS
Description: In one assay the biochemical activity IC50 values are determined with respect to inhibition of Flt-3 kinase activity, where inhibition of phosphorylation of a peptide substrate is measured as a function of compound concentration. Compounds to be tested, dissolved in DMSO (1 μL), are added to a white 384-well plate (Costar #3705). Working stocks of Flt-3 kinase (Invitrogen), biotin-(E4Y)10 substrate (Upstate Biotech, Cat#12-440), and ATP (Sigma, Cat#A-3377) are prepared in 25 mM Hepes pH 7.5, 5 mM MgCl2, 5 mM MnCl2, 1 mM DTT, and 0.01% Tween-20. All components are added to the 384-well plate for a final concentration of 1 ng/well Flt-3, 30 nM biotin-(E4Y)10 and 100 μM ATP in a volume of 20 μL. Each sample is at 5% DMSO. The plate is then incubated for 1 hour at room temperature. Just before use, working stocks of donor and acceptor beads from the AlphaScreen PY20 Detection Kit (PerkinElmer, Cat#676601M) are prepared in 25 mM Hepes pH 7.5, pH 7.4, 100 mM EDTA. 0.3% BSA. To stop the reaction, the plate is uncovered in the dark and 5 μL of Donor Beads solution (Streptavidin beads) is added to each well. The plate is incubated at room temperature for 20 minutes. Five microliters of Acceptor Beads solution (PY20 coated beads) are then added to each well. The final concentration of each bead is 10 μg/mL. The plates are incubated at room temperature for 60 minutes. Fluorescence signal is recorded on the Envision reader. Phosphorylated substrate results in binding of the PY20 antibody and association of the donor and acceptor beads such that signal correlates with kinase activity. The signal vs. compound concentration is used to determine the IC50.

BCR-FMS BaF3 cells = experiment: Splenomegaly mouse model, BCR-FMS BaF3 cells; type: in vivo
Description: BaF3 cells are engineered with any of BCR-FMS, BCR-TRK1 or BCR-TRK2 to assess in vivo inhibitory effects of Fms, TrkA or TrkB inhibition, respectively. BaF3 cells are maintained in growth media (RPMI containing 10% FBS, 1% PenStrep, 1% NEAA, and 1% L-Glutamine, supplemented with 5% murine IL-3 and 1 mg/mL G418). Four days prior to start, 2×10^6 cells are inoculated into a T150 vented flask using the growth media and incubated at 37° C. in 5% CO2 for three days. One day prior to start, cells are collected by centrifugation and are suspended in growth media without IL-3. On the day of cell implant, the cells are collected by centrifugation, rinsed 3×20 mL with RPMI, then are suspended in 5.4 mL of media and counted, then adjusted with additional RPMI as needed to give 5×10^7 cells/mL. On day 1, female nu/nu mice at 5-6 weeks of age are injected intravenously with BaF3 cells injected injecting 0.1 mL (5×10^6) cells in the tail vein (mice without cell injected are included as control group). Compound stocks in dimethylsulfoxide are stored at room temperature protected from light. Stocks are diluted prior to dosing, diluting 22 μL of compound stock into 858 μL of diluent (or 50 μL into 1950 μL) to provide vehicle of 1.0% Polysorbate 80, 0.5% hydroxypropyl methyl cellulose, with final dimethylsulfoxide at 2.5% in all dosing suspensions and vehicle control. Dosing suspension is prepared prior to use, mixing by inversion and sonication in a water bath to make a uniform suspension. On days 10-18, mice are treated with vehicle only or the desired level of compound in vehicle, ˜0.2 mL per 25 gm mouse, once a day by oral gavage, or in some instances, twice per day. On day 18, mice are administered a final dose and two hours later a plasma sample is taken. At four hours following the final dose, mice are sacrificed, an additional plasma sample is collected and mouse spleens are removed and weighed. The average spleen weight of vehicle control group mice is compared to the average spleen weight of the test compound mice. Percent spleen growth inhibition is calculated as 100×[(spleen weight vehicle control-spleen weight test compound)/spleen weight vehicle control]. In some instances, the compounds were not tested in all of the assays as indicated by NA in the table below.

[1] = dosed once per day at 10 mg per kg

Structure (SMILES)	IC50 (Flt-3 kinase) [nM]	% spleen growth inhibition, Fms (BCR-FMS BaF3 cells; [1]) [%]	% spleen growth inhibition, Fms (BCR-FMS BaF3 cells; dosed at 5 mg/kg) [%]
Cc1cnc2[nH]cc(Cc3cnc(Nc4ccc(F)cc4)nc3)c2c1 [Compound P-3010, (4-Fluoro-phenyl)-[5-(5-methyl-1H-pyrrolo[2,3-b]pyridin-3-ylmethyl)-pyrimidin-2-yl]-amine]	< 100	47	
Clc1ccc(Nc2ncc(Cc3c[nH]c4ncc(Cl)cc34)cn2)cc1 [Compound P-3011, (4-Chloro-phenyl)-[5-(5-chloro-1H-pyrrolo[2,3-b]pyridin-3-ylmethyl)-pyrimidin-2-yl]-amine]	< 10		
Fc1ccc(Nc2ncc(Cc3c[nH]c4ncc(Cl)cc34)cn2)cc1 [Compound P-3012, [5-(5-Chloro-1H-pyrrolo[2,3-b]pyridin-3-ylmethyl)-pyrimidin-2-yl]-(4-fluoro-phenyl)-amine]	< 100		
Fc1nc(NC2CCC(F)(F)CC2)ccc1Cc1c[nH]c2ncc(Cl)cc12 [Compound P-3013, [5-(5-Chloro-1H-pyrrolo[2,3-b]pyridin-3-ylmethyl)-6-fluoro-pyridin-2-yl]-(4,4-difluoro-cyclohexyl)-amine]	> 1000	48	
Fc1ccccc1Nc1ncc(Cc2c[nH]c3ncc(Cl)cc23)cn1 [Compound P-3014, [5-(5-Chloro-1H-pyrrolo[2,3-b]pyridin-3-ylmethyl)-pyrimidin-2-yl]-(2-fluoro-phenyl)-amine]	< 1000		
Clc1cnc2[nH]cc(Cc3cnc(Nc4ccccc4Cl)nc3)c2c1 [Compound P-3015, (2-Chloro-phenyl)-[5-(5-chloro-1H-pyrrolo[2,3-b]pyridin-3-ylmethyl)-pyrimidin-2-yl]-amine]	< 100		
O=C(c1ccc(NC2CCC(F)(F)CC2)nc1F)c1c[nH]c2ncnc(NCC(F)(F)F)c12 [Compound P-4061, [6-[(4,4-difluorocyclohexyl)amino]-2-fluoro-3-pyridyl]-[4-(2,2,2-trifluoroethylamino)-7H-pyrrolo[2,3-d]pyrimidin-5-yl]methanone]		48	
O=C(c1ccc(NC2CCC(F)(F)CC2)nc1F)c1c[nH]c2ncnc(NC3CC3)c12 [Compound P-4062, [4-(cyclopropylamino)-7H-pyrrolo[2,3-d]pyrimidin-5-yl]-[6-[(4,4-difluorocyclohexyl)amino]-2-fluoro-3-pyridyl]methanone]		76	
COc1ccc(Nc2ccc(C(=O)c3c[nH]c4ncnc(NCC(F)(F)F)c34)c(F)n2)cn1 [Compound P-4084, [2-fluoro-6-[(6-methoxy-3-pyridyl)amino]-3-pyridyl]-[4-(2,2,2-trifluoroethylamino)-7H-pyrrolo[2,3-d]pyrimidin-5-yl]methanone]		6.2	
O=C(c1ccc(Nc2ccc(C3CC3)nc2)nc1F)c1c[nH]c2ncnc(NCC(F)(F)F)c12 [Compound P-4090, [6-[(6-cyclopropyl-3-pyridyl)amino]-2-fluoro-3-pyridyl]-[4-(2,2,2-trifluoroethylamino)-7H-pyrrolo[2,3-d]pyrimidin-5-yl]methanone]			38
CNc1ncnc2[nH]cc(C(=O)c3ccc(NC4CCCCC4)nc3Cl)c12 [Compound P-4110, [2-chloro-6-(cyclohexylamino)-3-pyridyl]-[4-(methylamino)-7H-pyrrolo[2,3-d]pyrimidin-5-yl]methanone]		30	
Cc1ccc(Nc2ccc(C(=O)c3c[nH]c4ncnc(NCC(F)(F)F)c34)c(F)n2)cn1 [Compound P-4112, [2-fluoro-6-[(6-methyl-3-pyridyl)amino]-3-pyridyl]-[4-(2,2,2-trifluoroethylamino)-7H-pyrrolo[2,3-d]pyrimidin-5-yl]methanone]		9.5	
CCc1ccc(Nc2ccc(C(=O)c3c[nH]c4ncnc(NCC(F)(F)F)c34)c(F)n2)cn1 [Compound P-4120, [6-[(6-ethyl-3-pyridyl)amino]-2-fluoro-3-pyridyl]-[4-(2,2,2-trifluoroethylamino)-7H-pyrrolo[2,3-d]pyrimidin-5-yl]methanone]		37	
CCNc1ncnc2[nH]cc(C(=O)c3ccc(Nc4ccc(CC)nc4)nc3F)c12 [Compound P-4123, [4-(ethylamino)-7H-pyrrolo[2,3-d]pyrimidin-5-yl]-[6-[(6-ethyl-3-pyridyl)amino]-2-fluoro-3-pyridyl]methanone]			14
CCc1ccc(Nc2ccc(C(=O)c3c[nH]c4ncnc(NC)c34)c(F)n2)cn1 [Compound P-4124, [6-[(6-ethyl-3-pyridyl)amino]-2-fluoro-3-pyridyl]-[4-(methylamino)-7H-pyrrolo[2,3-d]pyrimidin-5-yl]methanone]		20	
